# How the values were obtained:
# [1] = biological target: Acyl-protein thioesterase 1 (Homo sapiens, UniProt O75608); test: Enzymatic Protein Activity Assay
# Description: (§1) The enzyme activities were determined by measuring the release of fluorescent 6,8-difluoro-4-methylumbelliferone (DiFMU) by the APT hydrolysis of DiFMU octanoate (DiFMUO) in a Tecan Infinite M200 microplate reader in a 96-well format.
# [2] = biological target: Acyl-protein thioesterase 2 (Homo sapiens, UniProt O95372); test: Enzymatic Protein Activity Assay
# Description: as §1
# Acyl-protein thioesterase 2, sequence (O95372 whole entry): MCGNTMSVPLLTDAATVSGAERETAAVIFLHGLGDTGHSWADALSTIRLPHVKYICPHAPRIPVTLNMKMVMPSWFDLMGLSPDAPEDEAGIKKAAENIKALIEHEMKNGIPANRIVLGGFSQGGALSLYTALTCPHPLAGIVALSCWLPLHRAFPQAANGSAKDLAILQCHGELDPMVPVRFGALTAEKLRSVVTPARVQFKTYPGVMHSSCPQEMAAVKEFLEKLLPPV
# Acyl-protein thioesterase 1, sequence (O75608 whole entry): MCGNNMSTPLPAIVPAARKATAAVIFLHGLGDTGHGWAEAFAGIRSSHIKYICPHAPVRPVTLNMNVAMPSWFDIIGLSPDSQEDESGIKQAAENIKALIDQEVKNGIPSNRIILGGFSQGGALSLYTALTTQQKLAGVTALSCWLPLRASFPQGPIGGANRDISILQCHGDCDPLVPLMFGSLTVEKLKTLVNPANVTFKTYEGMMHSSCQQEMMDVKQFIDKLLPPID
IC50 [1],IC50 [2],SMILES
33.6 µM,41.5 µM,"OB(c1ccccc1)c1cccc(COCc2cccc(B(O)c3ccccc3)c2)c1 [Phenylboronic acid, 7]"
3.2 µM,0.238 µM,"OB(O)c1cc(Oc2ccccc2)ccc1I [Phenylboronic acid, 15]"
6.3 µM,2.16 µM,"Cc1ccc(Br)c(B(O)O)c1 [Phenylboronic acid, 19]"
2.7 µM,4.1 µM,"NCCOB(c1ccccc1)c1ccc(COCc2ccc(B(OCCN)c3ccccc3)cc2)cc1 [Phenylboronic acid, 13]"
1.4 µM,0.418 µM,"OB(O)c1cccc(Cl)c1 [Phenylboronic acid, 10]"
1.1 µM,0.138 µM,"OB(O)c1ccc(Cl)c(Cl)c1 [3,4-Dichlorophenyl boronic acid]"
> 50 µM,> 50 µM,OB(O)c1ccccc1-c1ccccc1 [(2-phenylphenyl)boranediol]
3.2 µM,1.8 µM,"CN(C)CCOB(c1ccccc1)c1cccc(COCc2cccc(B(OCCN(C)C)c3ccccc3)c2)c1 [Phenylboronic acid, 14]"
14.7 µM,25.1 µM,"OB(O)c1ccccc1 [Phenylboronic acid, 22]"
0.51 µM,1.97 µM,"OB(O)c1cc(F)cc(F)c1 [Phenylboronic acid, 8]"
3.9 µM,2.87 µM,"CC(=O)c1cccc(B(O)O)c1 [Phenylboronic acid, 17]"
2.3 µM,0.529 µM,"OB(O)c1cc2ccccc2s1 [Phenylboronic acid, 11]"
3.7 µM,2.95 µM,"COC(=O)c1cc(B(O)O)cc([N+](=O)[O-])c1 [Phenylboronic acid, 16]"
13.5 µM,11.3 µM,"OB(O)c1cc2ccccc2o1 [Phenylboronic acid, 21]"

SMILES,IC50 [1],IC50 [2]
"OB(O)c1ccc(Cl)cc1 [Phenylboronic acid, 18]",4.6 µM,4.18 µM
OB(O)c1ccc(-c2ccccc2)cc1 [(4-phenylphenyl)boranediol],16.9 µM,3.55 µM
